In patent publication US8044089B2, “3-3-di-substituted-oxindoles as inhibitors of translation initiation” (President and Fellows of Harvard College, priority 2004, dated 2011):

Each compound was assayed on intracellular Ca^2+ stores (assay: Ca2+ release from intracellular stores (FURA-2AM loaded cells)). Conditions: not given.
Assay type: cell-based
Parameters: key to Ca^2+ (Ca^2+ release from intracellular stores): a “+” denotes release; a “+/−” denotes inconclusive
Description: (§1) As a non-limiting example, compounds 1272 and 1273 (set forth in Table 1) were synthesized starting from 3-bromoaniline, which upon condensation with hydroxylamine and chloral hydrate followed by concentrated sulfuric acid yielded an inseparable regioisomeric mixture of 4- and 6-bromo isatins. The addition of the two phenyl groups to the three position of the oxindole allowed easy chromatographic separation of the 4- and 6-bromo-3,3-diphenyloxindoles 1272 and 1273. Table 1 sets forth biological data for diaryloxindole compounds including, but not limited to 1272 and 1273. For Tables 1-14, Ca^2+ refers to Ca^2+ release from intracellular stores where a “+” denotes release and a “+/−” denotes inconclusive; eIF2α-P refers to phosphorylation of eIF2α measured by Western blot; SRB refers to the inhibitory concentration to reduce cell growth by 50% (IC50) for growth inhibition of A549 lung cancer cells; and n.d. is not determined.
(§2) Without intending to be bound by theory, the mechanism of action of translation initiation inhibitors is set forth in FIG. 1, and includes the depletion (complete or partial depletion) of intracellular calcium (Ca^2+) stores and phosphorylation of eIF2α. Compounds synthesized using the approaches described herein were screened for their ability to partially deplete intracellular Ca^2+ stores using FURA-2AM loaded cells (Benzaquen et al. (1995) Nature Medicine, 1:534, incorporated herein by reference in its entirety for all purposes). A limited subset of compounds were further screened for their ability to deplete endoplasmic reticulum (ER) Ca^2+. The Ca^2+ content of the ER was monitored using ER-targeted, Ca^2+ sensitive, recombinant proteins. These recombinant proteins emitted light by fluorescent resonance energy transfer (FRET) as a function of the Ca^2+ content of the medium. Such assays are previously described (Miyawaki, A.; Mizuno, H.; Llopis, J.; Tsien, R. Y.; Jalink, K. Cameleons as cytosolic and intra-organellar calcium probes, Oxford University Press: Oxford, London, 2001; pp 3-16, incorporated herein by reference in its entirety for all purposes). Compounds that depleted Ca^2+ were further evaluated for their ability to phosphorylate eIF2α. eIF2α phosphorylation was measured by Western blot analysis using the phospho-specific anti-eIF2α antibody, as previously described (Aktas et al. (1998) Proc. Natl. Acad. Sci. USA, 95:8280, incorporated herein by reference in its entirety for all purposes).

SMILES	Ca^2+ (Ca^2+ release from intracellular stores)
CCc1cccc2c1NC(=O)C2(c1ccccc1)c1cc(C(C)(C)C)ccc1O (centres unmarked) [Compound 1256]	+
CCc1cccc2c1C(c1ccccc1)(c1cc(C(C)(C)C)ccc1O)C(=O)N2 (centres unmarked) [Compound 1257]	+
CCc1ccc2c(c1)NC(=O)C2(c1ccccc1)c1cc(C(C)(C)C)ccc1O (centres unmarked) [Compound 1258]	+
O=C1Nc2ccc(I)cc2C1(c1ccccc1)c1ccccc1 [Compound 1264]	+
O=C1Nc2ccc([N+](=O)[O-])cc2C1(c1ccccc1)c1ccccc1 [Compound 1265]	+/−
CCc1ccc2c(c1)C(c1ccccc1)(c1ccccc1)C(=O)N2 [Compound 1269]	+
CCc1cccc2c1C(c1ccccc1)(c1ccccc1)C(=O)N2 [Compound 1270]	+
CCc1ccc2c(c1)NC(=O)C2(c1ccccc1)c1ccccc1 [Compound 1271]	+
O=C1Nc2cccc(Br)c2C1(c1ccccc1)c1ccccc1 [Compound 1272]	+
O=C1Nc2cc(Br)ccc2C1(c1ccccc1)c1ccccc1 [Compound 1273]	+
CC(C)(C)c1ccc(O)c(C2(Cc3ccccc3)C(=O)Nc3ccccc32)c1 (centres unmarked) [Compound 1275]	+/−
C#CC1(c2cc(C(C)(C)C)ccc2O)C(=O)Nc2ccccc21 (centres unmarked) [Compound 1276]	+
Cc1ccc(O)c(C2(c3ccccc3)C(=O)Nc3ccccc32)c1 (centres unmarked) [Compound 1278]	+
CCCCCCCc1ccc(O)c(C2(c3ccccc3)C(=O)Nc3ccccc32)c1 (centres unmarked) [Compound 1279]	+/−
CCCCCCCCCc1ccc(O)c(C2(c3ccccc3)C(=O)Nc3ccccc32)c1 (centres unmarked) [Compound 1280]	+/−
CC(C)Cc1ccc(O)c(C2(c3ccccc3)C(=O)Nc3ccccc32)c1 (centres unmarked) [Compound 1281]	+
CC(C)c1ccc(O)c(C2(c3ccccc3)C(=O)Nc3ccccc32)c1 (centres unmarked) [Compound 1282]	+
CCCc1ccc(O)c(C2(c3ccccc3)C(=O)Nc3ccccc32)c1 (centres unmarked) [Compound 1283]	+

The compounds below were run on eIF2α (assay: eIF2α phosphorylation measured by Western blot). Conditions: not given.
Assay type: cell-based
Description: as §1, §2

SMILES	eIF2α phosphorylation (in words)
O=C1Nc2cccc(Br)c2C1(c1ccccc1)c1ccccc1 [Compound 1272]	none of the compounds exhibited an increase in eIF2α phosphorylation relative to compound 1392
O=C1Nc2cc(Br)ccc2C1(c1ccccc1)c1ccccc1 [Compound 1273]	none of the compounds exhibited an increase in eIF2α phosphorylation relative to compound 1392

Same assay, conditions: Western blot; unit or reference not given

SMILES	eIF2α-P (phosphorylation of eIF2α measured by Western blot)
CCc1cccc2c1NC(=O)C2(c1ccccc1)c1cc(C(C)(C)C)ccc1O (centres unmarked) [Compound 1256]	1.3
CCc1cccc2c1C(c1ccccc1)(c1cc(C(C)(C)C)ccc1O)C(=O)N2 (centres unmarked) [Compound 1257]	1.11
CCc1ccc2c(c1)NC(=O)C2(c1ccccc1)c1cc(C(C)(C)C)ccc1O (centres unmarked) [Compound 1258]	3.13
O=C1Nc2ccc(I)cc2C1(c1ccccc1)c1ccccc1 [Compound 1264]	2.53
O=C1Nc2ccc([N+](=O)[O-])cc2C1(c1ccccc1)c1ccccc1 [Compound 1265]	2.35
CCc1ccc2c(c1)C(c1ccccc1)(c1ccccc1)C(=O)N2 [Compound 1269]	1.64
CCc1cccc2c1C(c1ccccc1)(c1ccccc1)C(=O)N2 [Compound 1270]	1.68
CCc1ccc2c(c1)NC(=O)C2(c1ccccc1)c1ccccc1 [Compound 1271]	1.58
O=C1Nc2cccc(Br)c2C1(c1ccccc1)c1ccccc1 [Compound 1272]	1.63
O=C1Nc2cc(Br)ccc2C1(c1ccccc1)c1ccccc1 [Compound 1273]	1.72
CC(C)(C)c1ccc(O)c(C2(Cc3ccccc3)C(=O)Nc3ccccc32)c1 (centres unmarked) [Compound 1275]	1.01
C#CC1(c2cc(C(C)(C)C)ccc2O)C(=O)Nc2ccccc21 (centres unmarked) [Compound 1276]	0.75
Cc1ccc(O)c(C2(c3ccccc3)C(=O)Nc3ccccc32)c1 (centres unmarked) [Compound 1278]	3.33
CCCCCCCc1ccc(O)c(C2(c3ccccc3)C(=O)Nc3ccccc32)c1 (centres unmarked) [Compound 1279]	3.49
CCCCCCCCCc1ccc(O)c(C2(c3ccccc3)C(=O)Nc3ccccc32)c1 (centres unmarked) [Compound 1280]	3.89
CC(C)Cc1ccc(O)c(C2(c3ccccc3)C(=O)Nc3ccccc32)c1 (centres unmarked) [Compound 1281]	7.94
CC(C)c1ccc(O)c(C2(c3ccccc3)C(=O)Nc3ccccc32)c1 (centres unmarked) [Compound 1282]	4.96
CCCc1ccc(O)c(C2(c3ccccc3)C(=O)Nc3ccccc32)c1 (centres unmarked) [Compound 1283]	7.67

The compounds below were run on A549 lung cancer cells (assay: SRB growth inhibition of A549 lung cancer cells). Conditions: A549 lung cancer cells; unit inferred; read-out: SRB (IC50 for growth inhibition of A549 lung cancer cells).
Assay type: cell-based, human
Description: As a non-limiting example, compounds 1272 and 1273 (set forth in Table 1) were synthesized starting from 3-bromoaniline, which upon condensation with hydroxylamine and chloral hydrate followed by concentrated sulfuric acid yielded an inseparable regioisomeric mixture of 4- and 6-bromo isatins. The addition of the two phenyl groups to the three position of the oxindole allowed easy chromatographic separation of the 4- and 6-bromo-3,3-diphenyloxindoles 1272 and 1273. Table 1 sets forth biological data for diaryloxindole compounds including, but not limited to 1272 and 1273. For Tables 1-14, Ca^2+ refers to Ca^2+ release from intracellular stores where a “+” denotes release and a “+/−” denotes inconclusive; eIF2α-P refers to phosphorylation of eIF2α measured by Western blot; SRB refers to the inhibitory concentration to reduce cell growth by 50% (IC50) for growth inhibition of A549 lung cancer cells; and n.d. is not determined. […]

SMILES	IC50 [µM]
CCc1cccc2c1NC(=O)C2(c1ccccc1)c1cc(C(C)(C)C)ccc1O (centres unmarked) [Compound 1256]	3
O=C1Nc2cccc(Br)c2C1(c1ccccc1)c1ccccc1 [Compound 1272]	8
O=C1Nc2cc(Br)ccc2C1(c1ccccc1)c1ccccc1 [Compound 1273]	6
Cc1ccc(O)c(C2(c3ccccc3)C(=O)Nc3ccccc32)c1 (centres unmarked) [Compound 1278]	8
CCCCCCCCCc1ccc(O)c(C2(c3ccccc3)C(=O)Nc3ccccc32)c1 (centres unmarked) [Compound 1280]	3
CC(C)Cc1ccc(O)c(C2(c3ccccc3)C(=O)Nc3ccccc32)c1 (centres unmarked) [Compound 1281]	3
CCCc1ccc(O)c(C2(c3ccccc3)C(=O)Nc3ccccc32)c1 (centres unmarked) [Compound 1283]	3

The remaining lines, values ahead:

IC50 [µM]	SMILES
10	CCc1cccc2c1C(c1ccccc1)(c1cc(C(C)(C)C)ccc1O)C(=O)N2 (centres unmarked) [Compound 1257]
4	CCc1ccc2c(c1)NC(=O)C2(c1ccccc1)c1cc(C(C)(C)C)ccc1O (centres unmarked) [Compound 1258]
9	O=C1Nc2ccc(I)cc2C1(c1ccccc1)c1ccccc1 [Compound 1264]
14	O=C1Nc2ccc([N+](=O)[O-])cc2C1(c1ccccc1)c1ccccc1 [Compound 1265]
> 20	CCc1ccc2c(c1)C(c1ccccc1)(c1ccccc1)C(=O)N2 [Compound 1269]
> 20	CCc1cccc2c1C(c1ccccc1)(c1ccccc1)C(=O)N2 [Compound 1270]
4	CCc1ccc2c(c1)NC(=O)C2(c1ccccc1)c1ccccc1 [Compound 1271]
13	CC(C)(C)c1ccc(O)c(C2(Cc3ccccc3)C(=O)Nc3ccccc32)c1 (centres unmarked) [Compound 1275]
13	C#CC1(c2cc(C(C)(C)C)ccc2O)C(=O)Nc2ccccc21 (centres unmarked) [Compound 1276]
3	CCCCCCCc1ccc(O)c(C2(c3ccccc3)C(=O)Nc3ccccc32)c1 (centres unmarked) [Compound 1279]
4	CC(C)c1ccc(O)c(C2(c3ccccc3)C(=O)Nc3ccccc32)c1 (centres unmarked) [Compound 1282]
